Reference: US20240307577A1, “CHLORINATED 4'-ALKYLUMBELLIFERYL ALPHA-D-GLUCOPYRANOSIDE AND METHOD OF ASSESSING EFFICACY OF A STERILIZATION PROCESS INCLUDING THE SAME” (3M INNOVATIVE PROPERTIES COMPANY, priority 2021, published 2024)

Tested on: Geobacillus stearothermophilus spores (ATCC 7953)
Assay: Fluorescence of enzyme substrates in culture media with Geobacillus stearothermophilus spores (96-well plate, 60° C.)
Type: cell-based
Conditions: for MEASURED FLUORESCENCE, RFU 10 Sec / MEASURED FLUORESCENCE, RFU +5 min / MEASURED FLUORESCENCE, RFU +10 min / MEASURED FLUORESCENCE, RFU +30 min / MEASURED FLUORESCENCE, RFU 10 sec: substrate 0.3 mg/mL, 60° C.; for fluorescent signal in the presence of Geobacillus stearothermophilus spores compared with MUG and 8F-MUG: high and low spore levels, two low pH levels, MUG also at its optimal pH of 8.0
Description: Culture media was prepared by dissolving by dissolving 2 g/L phytone peptone (BD BBL 211906) and 0.2 g/L L-alanine (Sigma 05129) in deionized water. 1N NaOH or 0.1 N HCl were used to adjust pH, and media were brought to volume and filter sterilizing using a 0.22 micron polyethersulfone (PES) filter. Stock solutions (25 mg/ml) of 6′-chloro-4′-methylumbelliferyl-a-D-glucopyranoside, 8′-chloro-4′-methylumbelliferyl-a-D-glucopyranoside, 8′-fluoro-4′-methylumbelliferyl-a-D-glucopyranoside, and 4-methylumbelliferyl-a-D-glucopyranoside were prepared in DMSO. The fluorogenic a-glucosidase substrates were added to culture media at a final concentration of 0.3 mg/ml.
(§1) Culture media (pH 6.7) containing 6′-chloro-4′-methylumbelliferyl α-D-glucopyranoside (0.3 mg/mL) was each added to eight wells (100 microliters per well) of a black 96-well microtiter plate with (NUNC #165301, Thermo Fisher Scientific, Waltham, Massachusetts). A 5-microliter aqueous suspension containing 5×10^3 Geobacillus stearothermophilus spores (ATCC 7953) was added to 4 of the wells for each medium in the microtiter plate. […] The top of the plate was covered with an optically clear sealing film (product #4311971, Applied Biosystems Corporation, Foster City, California). The plate was warmed at 60° C. and shaken in a linear direction. Fluorescence readings (360 nm excitation/450 nm emission at 50% gain) were taken from the bottom of the plate. A reading was taken at an initial time point of 10 seconds and then at +1-minute intervals thereafter. A Synergy Neo2 fluorescence plate reader (BioTek Company, Winooski, Vermont) was used. In Table 1, the mean fluorescence values detected (RFU) at times of 10 seconds, +5 minutes, +10 minutes, and +30 minutes are reported. The mean fluorescence values detected for the control wells were 511 RFU at 10 seconds; 426 RFU at +5 minutes: 373 RFU at +10 minutes, and 310 RFU at +30 minutes.
as §1, with “(pH 7.0)” for “(pH 6.7)”, “Table 2,” for “Table 1,”, “were 512” for “were 511”, “seconds; 417” for “seconds; 426”, “+5 minutes; 363” for “+5 minutes: 373”, “and 308” for “and 310”
Culture media (pH 6.7) containing 6′-chloro-4′-methylumbelliferyl α-D-glucopyranoside (0.3 mg/mL) was each added to eight wells (100 microliters per well) of a black 96-well microtiter plate with (NUNC #165301, Thermo Fisher Scientific, Waltham, Massachusetts). A 5-microliter aqueous suspension containing 5×10^5 Geobacillus stearothermophilus spores (ATCC 7953) was added to 4 of the wells for each medium in the microtiter plate. […] The top of the plate was covered with an optically clear sealing film (product #4311971, Applied Biosystems Corporation, Foster City, California). The plate was warmed at 60° C. and shaken in a linear direction. Fluorescence readings (360 nm excitation/450 nm emission at 50% gain) were taken from the bottom of the plate. […]

[1] = 5 × 10^3 spores, culture media pH 6.7, 360 nm ex/450 nm em
[2] = 5 × 10^3 spores, culture media pH 6.7
[3] = 5 × 10^3 spores, culture media pH 7.0
[4] = 5 × 10^5 spores, culture media pH 6.7
[5] = 5 × 10^5 spores, culture media pH 7.0
[6] = 5 × 10^3 spores, culture media pH 8.0
[7] = 5 × 10^5 spores, culture media pH 8.0

SMILES | MEASURED FLUORESCENCE, RFU 10 Sec [1] [RFU] | MEASURED FLUORESCENCE, RFU +5 min [2] [RFU] | MEASURED FLUORESCENCE, RFU +10 min [2] [RFU] | MEASURED FLUORESCENCE, RFU +30 min [2] [RFU] | MEASURED FLUORESCENCE, RFU 10 Sec [3] [RFU] | MEASURED FLUORESCENCE, RFU +5 min [3] [RFU] | MEASURED FLUORESCENCE, RFU +10 min [3] [RFU] | MEASURED FLUORESCENCE, RFU +30 min [3] [RFU] | MEASURED FLUORESCENCE, RFU 10 sec [4] [RFU] | MEASURED FLUORESCENCE, RFU +5 min [4] [RFU] | MEASURED FLUORESCENCE, RFU +10 min [4] [RFU] | MEASURED FLUORESCENCE, RFU +30 min [4] [RFU] | MEASURED FLUORESCENCE, RFU 10 sec [5] [RFU] | MEASURED FLUORESCENCE, RFU +5 min [5] [RFU] | MEASURED FLUORESCENCE, RFU +10 min [5] [RFU] | MEASURED FLUORESCENCE, RFU +30 min [5] [RFU] | fluorescent signal in the presence of Geobacillus stearothermophilus spores compared with MUG and 8F-MUG | also measured
Cc1cc(=O)oc2cc(O[C@H]3O[C@H](CO)[C@@H](O)[C@H](O)[C@H]3O)c(Cl)cc12 [Example 1, 6′-chloro-4′-methylumbelliferyl α-D-glucopyranoside] | 1013 | 2251 | 4622 | 12582 | 1226 | 2377 | 4424 | 11941 | 17227 | 53202 | 79375 | 98077 | 18386 | 53621 | 81061 | 99019 | higher fluorescent signal | –
Cc1cc(=O)oc2cc(O[C@H]3O[C@H](CO)[C@@H](O)[C@H](O)[C@H]3O)ccc12 [MUG, 4′-methylumbelliferyl-α-D-glucopyranoside, reference compound] | 430 | 403 | 464 | 991 | – | – | – | – | 895 | 3260 | 8049 | 29586 | – | – | – | – | – | MEASURED FLUORESCENCE, RFU 10 Sec [6]: 540 RFU; MEASURED FLUORESCENCE, RFU +5 min [6]: 658 RFU; MEASURED FLUORESCENCE, RFU +10 min [6]: 993 RFU; MEASURED FLUORESCENCE, RFU +30 min [6]: 2891 RFU; MEASURED FLUORESCENCE, RFU 10 sec [7]: 2644 RFU; MEASURED FLUORESCENCE, RFU +5 min [7]: 12059 RFU; MEASURED FLUORESCENCE, RFU +10 min [7]: 29277 RFU; MEASURED FLUORESCENCE, RFU +30 min [7]: 75861 RFU
Cc1cc(=O)oc2c(F)c(O[C@H]3O[C@H](CO)[C@@H](O)[C@H](O)[C@H]3O)ccc12 [Example 8F-MUG, 8′-fluoro-4′-methylumbelliferyl α-D-glucopyranoside, reference compound] | 693 | 1422 | 2869 | 8410 | 777 | 1573 | 3153 | 9038 | 8975 | 31069 | 50175 | 67041 | 8171 | 34178 | 56663 | 70392 | – | –
Cc1cc(=O)oc2c(Cl)c(O[C@H]3O[C@H](CO)[C@@H](O)[C@H](O)[C@H]3O)ccc12 [Example 2, 8′-chloro-4′-methylumbelliferyl α-D-glucopyranoside] | 1164 | 3013 | 6278 | 15253 | 1500 | 3370 | 6612 | 16521 | 21302 | 56949 | 73987 | 81560 | 21883 | 58454 | 77112 | 83010 | higher fluorescent signal | –
